Tests used:
CA IX = molecular target: T1, CA IX (Homo sapiens, UniProt Q16790); experiment: Carbonic anhydrase inhibition assay (p-nitrophenyl acetate hydrolysis, colorimetric, 348 nm); format: biochemical; conditions: mean of three independent experiments ± SEM; pH 7.6; read-out: CAIX Ki (μM ± SEM)
T1 construct: His-tag; made in house
Experimental: All three isozymes, CA II, CA IX, and CA XII, were produced using the same protocol done for each. Transformation was the first step to be done in which the plasmids and the off-spark plasmids of CA II, CA IX, and CA XII were transformed into competent E. coli bacteria using the heat shock method, cells were grown in agar, then a colony was selected for further growth in LB broth, cells were collected by centrifugation according to the methods described in [25], and the plasmid was extracted according to the kit protocol using SanPrep column plasmid miniprep kit obtained from Sangon Biotech. […] Six hours later, the media were aspirated, and the fresh prepared (+10% FBS and 1% pen/strep) media were added to the cells. On the next day, the cells were inspected for their viability, and new media were used for the selection process which were DMEM, FBS, and hygromycin B using a final concentration of 200 μg/mL. The cells were grown in the selective media, and when they reached 70 to 80% confluency, the offs-park plasmid transfected cells were checked under a fluorescent microscope to insure the production of the protein; then, the cells transfected with the His-tagged plasmid were collected for making the cell lysate following the method described by by centrifugation of the cells at 2000 rpm for 5 minutes, washed with PBS, and again centrifuged; the pellet was then suspended in the cell lysis buffer, incubated in ice for 15 minutes, and centrifuged again at 10000 g at 4°C for 15 minutes, and here, the pellet was discarded and the supernatant was collected for purification using Ni-NTA Sepharose column according to the manufacturer's protocol. And the eluting solution was quantified using the protein quantification technique Biuret assay and Bradford reagent for protein quantification.
Carbonic anhydrase inhibition activity was carried out using an already developed method with slight modification. The principle of the current method is centered on that “CA hydrolyses the p-nitrophenyl acetate to p-nitrophenol” which is determined by spectrophotometrically. Reaction mixture contained 60 μL of 50 mM Tris-sulfate buffer (pH 7.6 containing 0.1 mM ZnCl2) and 10 μL (0.5 mM) test compound in 1% DMSO. […] Preparation of p-nitrophenyl acetate was done by taking 6 mM stock using <5% acetonitrile in buffer and was used fresh. Each well was filled with 20 μL solution to attain […] concentration. The total reaction volume was made to 100 μL.

CA II = CA II (Homo sapiens, UniProt P00918); experiment: Carbonic anhydrase inhibition assay (p-nitrophenyl acetate hydrolysis, colorimetric, 348 nm)
Experimental: (§1) Carbonic anhydrase inhibition activity was carried out using an already developed method [19] with slight modification. The principle of the current method is centered on that “CA hydrolyses the p-nitrophenyl acetate to p-nitrophenol” which is determined by spectrophotometrically. Reaction mixture contained 60 μL of 50 mM Tris-sulfate buffer (pH 7.6 containing 0.1 mM ZnCl2) and 10 μL (0.5 mM) test compound in 1% DMSO. […] Preparation of p-nitrophenyl acetate was done by taking 6 mM stock using <5% acetonitrile in buffer and was used fresh. Each well was filled with 20 μL solution to attain 0.6 mM concentration. The total reaction volume was made to 100 μL.

CA XII = CA XII (Homo sapiens, UniProt O43570); experiment: as above; conditions: for CAXII % inhibition: given instead of Ki where inhibition <50%, test compound 10 μL (0.5 mM), b52 says 1.0 mM
Sequence of CA XII (O43570 25-354): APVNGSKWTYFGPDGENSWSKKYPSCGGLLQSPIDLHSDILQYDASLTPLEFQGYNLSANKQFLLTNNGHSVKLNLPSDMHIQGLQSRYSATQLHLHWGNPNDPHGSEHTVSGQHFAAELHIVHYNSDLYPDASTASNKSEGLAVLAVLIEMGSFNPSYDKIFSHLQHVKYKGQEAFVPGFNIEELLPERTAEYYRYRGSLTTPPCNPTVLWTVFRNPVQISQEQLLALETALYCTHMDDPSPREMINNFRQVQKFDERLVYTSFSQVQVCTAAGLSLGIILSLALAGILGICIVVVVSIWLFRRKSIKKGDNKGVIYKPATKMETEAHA
Experimental: as §1

Ki (CA IX) [µM] | melting point [°C] | Ki (CA II) [nM] | CAXII % inhibition (CA XII) [%] | Ki (CA XII) [nM] | SMILES
0.58 ± 0.04 | 220 to 222 | 680 ± 20 | 44.4 | – | COc1cc(C)ccc1C(=O)NNS(=O)(=O)c1ccc([N+](=O)[O-])cc1 [Compound 19, N′-(2-Methoxy-4-methylbenzoyl)-4-nitrobenzenesulfonohydrazide]
0.56 ± 0.05 | 168 to 169 | 660 ± 40 | – | 990 ± 100 | COc1cc(C)ccc1C(=O)NNS(=O)(=O)c1ccc(Br)cc1 [Compound 20, 4-Bromo-N′-(2-methoxy-4-methylbenzoyl)benzenesulfonohydrazide]
0.19 ± 0.02 | 159 to 162 | 610 ± 10 | – | 1220 ± 10 | COc1ccc(S(=O)(=O)NNC(=O)c2ccc(C)cc2OC)cc1 [Compound 21, 4-Methoxy-N′-(2-methoxy-4-methylbenzoyl)benzenesulfono hydrazide]
1.04 ± 0.38 | 161 to 163 | 680 ± 10 | 42.89 | – | COc1cc(C)ccc1C(=O)NNS(=O)(=O)c1ccc(C)cc1 [Compound 22, N′-(2-Methoxy-4-methylbenzoyl)-4-methylbenzenesulfonohydrazide]
0.19 ± 0.03 | 186 to 187 | 940 ± 20 | – | 750 ± 70 | COc1cc(C)ccc1C(=O)NNS(=O)(=O)c1ccc2ccccc2c1 [Compound 23, N′-(2-Methoxy-4-methylbenzoyl)naphthalene-2-sulfonohydrazide]
0.54 ± 0.06 | 211 to 213 | 340 ± 10 | – | 520 ± 40 | Cc1ccc(C(=O)NNS(=O)(=O)c2ccc([N+](=O)[O-])cc2)c(O)c1 [Compound 24, N′-(2-Hydroxy-4-methylbenzoyl)-4-nitrobenzenesulfonohydrazide]
0.33 ± 0.03 | – | 910 ± 20 | – | 350 ± 40 | Cc1ccc(C(=O)NNS(=O)(=O)c2ccc(Br)cc2)c(O)c1 [Compound 25, 4-Bromo-N′-(2-hydroxy-4-methylbenzoyl)benzenesulfonohydrazide]
0.91 ± 0.09 | 168 to 169 | 960 ± 90 | – | 580 ± 40 | COc1ccc(S(=O)(=O)NNC(=O)c2ccc(C)cc2O)cc1 [Compound 26, N′-(2-Hydroxy-4-methylbenzoyl)-4-methoxybenzenesulfono hydrazide]
0.51 ± 0.04 | 183 to 185 | 1110 ± 40 | – | 430 ± 80 | Cc1ccc(S(=O)(=O)NNC(=O)c2ccc(C)cc2O)cc1 [Compound 27, N′-(2-Hydroxy-4-methylbenzoyl)-4-methylbenzenesulfonohydrazide]
0.55 ± 0.01 | 205 to 206 | 460 ± 10 | – | 1020 ± 80 | Cc1ccc(CC(=O)NNS(=O)(=O)c2ccc([N+](=O)[O-])cc2)cc1 [Compound 28, 4-Nitro-N′-(2-(p-tolyl)acetyl)benzenesulfonohydrazide]
0.33 ± 0.02 | 156 to 157 | 730 ± 20 | – | 550 ± 10 | Cc1ccc(CC(=O)NNS(=O)(=O)c2ccc(Br)cc2)cc1 [Compound 29, 4-Bromo-N′-(2-(p-tolyl)acetyl)benzenesulfonohydrazide]
0.33 ± 0.03 | 133 to 134 | 740 ± 40 | – | 130 ± 10 | COc1ccc(S(=O)(=O)NNC(=O)Cc2ccc(C)cc2)cc1 [Compound 30, 4-Methoxy-N′-(2-(p-tolyl)acetyl)benzenesulfonohydrazide]
0.29 ± 0.02 | 143 to 144 | 670 ± 10 | – | 400 ± 90 | Cc1ccc(CC(=O)NNS(=O)(=O)c2ccc(C)cc2)cc1 [Compound 31, 4-Methyl-N′-(2-(p-tolyl)acetyl)benzenesulfonohydrazide]
0.32 ± 0.01 | 158 to 159 | 670 ± 60 | 49.25 | – | COc1cccc(CC(=O)NNS(=O)(=O)c2ccc([N+](=O)[O-])cc2)c1 [Compound 32, N′-(2-(3-Methoxyphenyl)acetyl)-4-nitrobenzenesulfonohydrazide]
0.39 ± 0.03 | 153 to 154 | 680 ± 50 | – | 170 ± 10 | COc1cccc(CC(=O)NNS(=O)(=O)c2ccc(Br)cc2)c1 [Compound 33, 4-Bromo-N′-(2-(3-methoxyphenyl)acetyl)benzenesulfonohydrazide]
0.65 ± 0.03 | 146 to 147 | 1810 ± 30 | – | 220 ± 60 | COc1ccc(S(=O)(=O)NNC(=O)Cc2cccc(OC)c2)cc1 [Compound 34, 4-Methoxy-N′-(2-(3-methoxyphenyl)acetyl)benzenesulfonohydrazide]
1.18 ± 0.04 | 143 to 144 | 3200 ± 140 | – | 340 ± 10 | COc1cccc(CC(=O)NNS(=O)(=O)c2ccc(C)cc2)c1 [Compound 35, N′-(2-(3-Methoxyphenyl)acetyl)-4-methylbenzenesulfonohydrazide]
0.6 ± 0.01 | 139 to 141 | 920 ± 100 | 48.88 | – | COc1cccc(CC(=O)NNS(=O)(=O)c2ccc3ccccc3c2)c1 [Compound 36, N′-(2-(3-Methoxyphenyl)acetyl)naphthalene-2-sulfonohydrazide]

— paper PMC8894010, “Synthesis, Carbonic Anhydrase II/IX/XII Inhibition, DFT, and Molecular Docking Studies of Hydrazide-Sulfonamide Hybrids of 4-Methylsalicyl- and Acyl-Substituted Hydrazide” (BioMed Research International, 2022)
